In experiment [1] the target is T1, mouse CCK-B R (Mus musculus, UniProt P56481).
T1 construct: expressed in transfected cells
T1 sequence (P56481 1-453): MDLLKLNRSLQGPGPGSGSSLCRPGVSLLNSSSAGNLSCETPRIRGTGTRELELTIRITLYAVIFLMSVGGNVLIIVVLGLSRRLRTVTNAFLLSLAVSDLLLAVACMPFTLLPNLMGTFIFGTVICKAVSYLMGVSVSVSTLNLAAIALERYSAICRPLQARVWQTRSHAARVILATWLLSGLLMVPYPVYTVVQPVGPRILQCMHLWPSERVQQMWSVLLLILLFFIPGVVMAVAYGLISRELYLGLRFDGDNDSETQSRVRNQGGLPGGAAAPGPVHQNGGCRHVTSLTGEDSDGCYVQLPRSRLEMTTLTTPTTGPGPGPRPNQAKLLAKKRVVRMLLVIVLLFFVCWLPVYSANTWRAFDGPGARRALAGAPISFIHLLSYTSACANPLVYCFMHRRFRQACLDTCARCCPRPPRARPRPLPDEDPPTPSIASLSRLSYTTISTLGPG
As to the kind of experiment: Mouse CCK-B receptor efficacy assay (AlphaScreen SureFire p-ERK). Type of experiment: cell-based. An excerpt:
CCK-B Receptor (CCK-B R) Efficacy Assay:
To test binding and activation of CCK-B R we produced stable cell lines expressing one of the human or mouse CCK receptors in a manner similar to that for production of the hGLP-1 R cell lines were generated (vide supra). In brief, we used HEK293 cells for transfection of the cDNA for human or mouse CCK-A R or CCK-B R [hCCK-A R (gene identity: L19315), hCCK-B R (NM_176875), mCCK-A R (NM_009827) and mCCK-B R (NM_007627)] all cloned into the transfection plasmid pIRESneo2dNGFR. The cells were grown according to standard protocol in growth medium and transfected with the plasmids using Lipofectamin (Invitrogen). The cells stably expressing CCK receptors were selected using G418 in the growth medium (only cells that have taken up and incorporated the cDNA expression plasmid survive) and propagated. Stocks of cells were frozen for later use.
In vitro effects of peptide conjugates of the invention were estimated by measuring p-ERK (using the AlphaScreen™ SureFire p-ERK assay) in HEK293 cells stably expressing the human and mouse CCK-B R (high-affinity Gastrin receptor), respectively. The Gastrin receptor efficacy assays (AlphaScreen™ SureFire p-ERK assay) were performed as follows:
The CCK-B R expressing cells in question were seeded at 20,000 cells/well in 100 μl growth medium [DMEM, 10% FCS, Penicillin (100 IU/ml), Streptomycin (100 μg/ml)] in a 96-well plate coated with poly-D-lysine. The cells were incubated in an incubator (37° C., 5% […]) for two days.
The growth medium was changed to 80 μl of serum-free medium [DMEM, Penicillin (100 IU/ml), Streptomycin (100 μg/ml)] per well, and incubation of the cells was continued for 19 hours in the incubator (37° C., 5% CO2).
• 1. After 19 hours, 20 μl of serum-free medium containing one of 5 different concentrations of peptide conjugate was added (performed in triplicate for each concentration), and the cells were incubated for 5 min. at room temperature. • 2. The stimulation medium was discarded by quickly turning the plate upside down, and 60 μl 1× lysis buffer (from the SureFire assay kit) was added per well. • 3. The plate was shaken on a plate-shaker for 5 min and then placed on ice. • 4. SureFire P-ERK assay: 4 μl of each supernatant was transferred to a 384 well proxiplate (Perkin Elmer). • 5. 4 μl of each of the two control lysates (unstimulated and stimulated) were added to the proxiplate in duplicate. • 6. […] 7 μl of the latter reaction buffer+activation buffer+beads per well were added in the proxiplate, the mix being resuspended carefully before addition to the wells. • 7. The plate was incubated for 2 hours in a dark box in a 22° C. incubator. • 8. The plate was analyzed on an Envision™ light-emission plate reader (Perkin-Elmer) using the appropriate reading program (Perkin-Elmer).
(Bead proximity is the source of the signal in Alpha formats.)

Experiment [2] has as its target T2, human CCK-B R (Homo sapiens, UniProt P32239).
T2 construct: expressed in transfected cells
T2 sequence (P32239 1-447): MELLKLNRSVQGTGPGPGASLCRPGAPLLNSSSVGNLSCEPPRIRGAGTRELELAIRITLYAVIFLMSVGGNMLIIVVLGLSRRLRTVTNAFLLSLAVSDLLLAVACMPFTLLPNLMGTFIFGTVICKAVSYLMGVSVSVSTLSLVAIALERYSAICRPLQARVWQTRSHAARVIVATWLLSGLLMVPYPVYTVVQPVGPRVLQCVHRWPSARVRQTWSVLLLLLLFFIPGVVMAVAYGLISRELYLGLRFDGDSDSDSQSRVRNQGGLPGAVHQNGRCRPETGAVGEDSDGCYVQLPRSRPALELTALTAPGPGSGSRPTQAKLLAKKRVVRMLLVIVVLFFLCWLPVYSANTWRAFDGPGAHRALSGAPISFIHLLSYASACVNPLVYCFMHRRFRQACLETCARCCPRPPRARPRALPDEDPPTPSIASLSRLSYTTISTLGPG
As to the kind of experiment: Human CCK-B receptor efficacy assay (AlphaScreen SureFire p-ERK). The experiment is classed as cell-based. Particulars: Table 1; HEK293 cells expressing human CCK-B R, p-ERK; read-out: hCCK-B R EC50.

[3] abbreviates: Table 1, HEK293 cells expressing mouse CCK-B R, p-ERK, read-out: mCCK-B R EC50.

Where two headings read alike, the source gives them in different places. Ends that are not written are not given here.

In general, EC50 refers to the concentration needed to bring the measured effect to its halfway point. As to “QGPWLEEEEEAYGWLDF-NH2 [h[Gln1,Leu15]Gastrin17, reference compound]”, the EC50 in experiment [1] is 18.2 nM.

Turning to `CC[C@H](C)[C@H](NC(=O)[C@H](Cc1ccccc1)NC(=O)[C@H](CCC(=O)O)NC(=O)[C@H](CCCCN)NC(=O)[C@H](C)NC(=O)[C@H](C)NC(=O)[C@H](CCC(N)=O)NC(=O)CNC(=O)[C@H](CCC(=O)O)NC(=O)[C@H](CC(C)C)NC(=O)[C@H](Cc1ccc(O)cc1)NC(=O)[C@H](CO)NC(=O)[C@H](CO)NC(=O)[C@@H](NC(=O)[C@H](CC(=O)O)NC(=O)[C@H](CO)NC(=O)[C@@H](NC(=O)[C@H](Cc1ccccc1)NC(=O)[C@@H](NC(=O)CNC(=O)[C@H](CCC(=O)O)NC(=O)[C@H](C)NC(=O)[C@@H](N)Cc1c[nH]cn1)[C@@H](C)O)[C@@H](C)O)C(C)C)C(=O)N[C@@H](C)C(=O)N[C@@H](Cc1c[nH]c2ccccc12)C(=O)N[C@@H](CC(C)C)C(=O)N[C@H](C(=O)N[C@@H](CCCCN)C(=O)NCC(=O)N[C@@H](CCCNC(=N)N)C(=O)NCCOCCOCC(=O)NCCOCCOCC(=O)N[C@@H](CCC(N)=O)C(=O)NCC(=O)N1CCC[C@H]1C(=O)N[C@@H](Cc1c[nH]c2ccccc12)C(=O)N[C@@H](CC(C)C)C(=O)N[C@@H](CCC(=O)O)C(=O)N[C@@H](CCC(=O)O)C(=O)N[C@@H](CCC(=O)O)C(=O)N[C@@H](CCC(=O)O)C(=O)N[C@@H](CCC(=O)O)C(=O)N[C@@H](C)C(=O)N[C@@H](Cc1ccc(O)cc1)C(=O)NCC(=O)N[C@@H](Cc1c[nH]c2ccccc12)C(=O)N[C@@H](CC(C)C)C(=O)N[C@@H](CC(=O)O)C(=O)N[C@@H](Cc1ccccc1)C(N)=O)C(C)C` [Compound 42, GLP-1(7-36)-Peg3-Peg3-[Gln1,Leu15]Gastrin17], the concentration giving a half-maximal response (EC50) is 8.2 nM in experiment [2] and 58.3 nM in experiment [1] (setting [3]).

On to `CC[C@H](C)[C@H](NC(=O)[C@H](Cc1ccccc1)NC(=O)[C@H](CCC(=O)O)NC(=O)[C@H](CCCCN)NC(=O)[C@H](C)NC(=O)[C@H](C)NC(=O)[C@H](CCC(N)=O)NC(=O)CNC(=O)[C@H](CCC(=O)O)NC(=O)[C@H](CC(C)C)NC(=O)[C@H](Cc1ccc(O)cc1)NC(=O)[C@H](CO)NC(=O)[C@H](CO)NC(=O)[C@@H](NC(=O)[C@H](CC(=O)O)NC(=O)[C@H](CO)NC(=O)[C@@H](NC(=O)[C@H](Cc1ccccc1)NC(=O)[C@@H](NC(=O)CNC(=O)[C@H](CCC(=O)O)NC(=O)[C@H](C)NC(=O)[C@@H](N)Cc1c[nH]cn1)[C@@H](C)O)[C@@H](C)O)C(C)C)C(=O)N[C@@H](C)C(=O)N[C@@H](Cc1c[nH]c2ccccc12)C(=O)N[C@@H](CC(C)C)C(=O)N[C@H](C(=O)N[C@@H](CCCCN)C(=O)NCC(=O)N[C@@H](CCCNC(=N)N)C(=O)NCCCCCCCC(=O)N[C@@H](CO)C(=O)N[C@@H](CCCCN)C(=O)N[C@@H](CCCCN)C(=O)N[C@@H](CCC(N)=O)C(=O)NCC(=O)N1CCC[C@H]1C(=O)N[C@@H](Cc1c[nH]c2ccccc12)C(=O)N[C@@H](CC(C)C)C(=O)N[C@@H](CCC(=O)O)C(=O)N[C@@H](CCC(=O)O)C(=O)N[C@@H](CCC(=O)O)C(=O)N[C@@H](CCC(=O)O)C(=O)N[C@@H](CCC(=O)O)C(=O)N[C@@H](C)C(=O)N[C@@H](Cc1ccc(O)cc1)C(=O)NCC(=O)N[C@@H](Cc1c[nH]c2ccccc12)C(=O)N[C@@H](CC(C)C)C(=O)N[C@@H](CC(=O)O)C(=O)N[C@@H](Cc1ccccc1)C(N)=O)C(C)C` [Compound 43, GLP-1(7-36)-8Aoc-SKK-[Gln1,Leu15]Gastrin17], for which the values for the EC50 in experiment [2] and in experiment [1] (setting [3]) were 51.9 nM and 82.5 nM, respectively.

In the case of `CC[C@H](C)[C@H](NC(=O)[C@H](Cc1ccccc1)NC(=O)[C@H](CCC(=O)O)NC(=O)[C@H](CCCCN)NC(=O)[C@H](C)NC(=O)[C@H](C)NC(=O)[C@H](CCC(N)=O)NC(=O)CNC(=O)[C@H](CCC(=O)O)NC(=O)[C@H](CC(C)C)NC(=O)[C@H](Cc1ccc(O)cc1)NC(=O)[C@H](CO)NC(=O)[C@H](CO)NC(=O)[C@@H](NC(=O)[C@H](CC(=O)O)NC(=O)[C@H](CO)NC(=O)[C@@H](NC(=O)[C@H](Cc1ccccc1)NC(=O)[C@@H](NC(=O)CNC(=O)[C@H](CCC(=O)O)NC(=O)[C@H](C)NC(=O)[C@@H](N)Cc1c[nH]cn1)[C@@H](C)O)[C@@H](C)O)C(C)C)C(=O)N[C@@H](C)C(=O)N[C@@H](Cc1c[nH]c2ccccc12)C(=O)N[C@@H](CC(C)C)C(=O)N[C@H](C(=O)N[C@@H](CCCCN)C(=O)NCC(=O)N[C@@H](CCCNC(=N)N)C(=O)NCCOCCOCC(=O)N[C@@H](CO)C(=O)N[C@@H](CCCCN)C(=O)N[C@@H](CCCCN)C(=O)N[C@@H](CCC(N)=O)C(=O)NCC(=O)N1CCC[C@H]1C(=O)N[C@@H](Cc1c[nH]c2ccccc12)C(=O)N[C@@H](CC(C)C)C(=O)N[C@@H](CCC(=O)O)C(=O)N[C@@H](CCC(=O)O)C(=O)N[C@@H](CCC(=O)O)C(=O)N[C@@H](CCC(=O)O)C(=O)N[C@@H](CCC(=O)O)C(=O)N[C@@H](C)C(=O)N[C@@H](Cc1ccc(O)cc1)C(=O)NCC(=O)N[C@@H](Cc1c[nH]c2ccccc12)C(=O)N[C@@H](CC(C)C)C(=O)N[C@@H](CC(=O)O)C(=O)N[C@@H](Cc1ccccc1)C(N)=O)C(C)C` [Compound 41, GLP-1(7-36)-Peg3-SKK-[Gln1,Leu15]Gastrin17], the EC50 stood at 8.76 nM in experiment [2] and 51.1 nM in experiment [1] (setting [3]).

Consider `CC[C@H](C)[C@H](NC(=O)[C@H](Cc1ccccc1)NC(=O)[C@H](CCC(=O)O)NC(=O)[C@H](CCCCN)NC(=O)[C@H](C)NC(=O)[C@H](C)NC(=O)[C@H](CCC(N)=O)NC(=O)CNC(=O)[C@H](CCC(=O)O)NC(=O)[C@H](CC(C)C)NC(=O)[C@H](Cc1ccc(O)cc1)NC(=O)[C@H](CO)NC(=O)[C@H](CO)NC(=O)[C@@H](NC(=O)[C@H](CC(=O)O)NC(=O)[C@H](CO)NC(=O)[C@@H](NC(=O)[C@H](Cc1ccccc1)NC(=O)[C@@H](NC(=O)CNC(=O)[C@H](CCC(=O)O)NC(=O)[C@H](C)NC(=O)[C@@H](N)Cc1c[nH]cn1)[C@@H](C)O)[C@@H](C)O)C(C)C)C(=O)N[C@@H](C)C(=O)N[C@@H](Cc1c[nH]c2ccccc12)C(=O)N[C@@H](CC(C)C)C(=O)N[C@H](C(=O)N[C@@H](CCCCN)C(=O)NCC(=O)N[C@@H](CCCNC(=N)N)C(=O)NCCc1cccc2c1oc1c(CCC(=O)N[C@@H](CO)C(=O)N[C@@H](CCCCN)C(=O)N[C@@H](CCCCN)C(=O)N[C@@H](CCC(N)=O)C(=O)NCC(=O)N3CCC[C@H]3C(=O)N[C@@H](Cc3c[nH]c4ccccc34)C(=O)N[C@@H](CC(C)C)C(=O)N[C@@H](CCC(=O)O)C(=O)N[C@@H](CCC(=O)O)C(=O)N[C@@H](CCC(=O)O)C(=O)N[C@@H](CCC(=O)O)C(=O)N[C@@H](CCC(=O)O)C(=O)N[C@@H](C)C(=O)N[C@@H](Cc3ccc(O)cc3)C(=O)NCC(=O)N[C@@H](Cc3c[nH]c4ccccc34)C(=O)N[C@@H](CC(C)C)C(=O)N[C@@H](CC(=O)O)C(=O)N[C@@H](Cc3ccccc3)C(N)=O)cccc12)C(C)C` [Compound 44, GLP-1(7-36)-DBF-SKK-[Gln1,Leu15]Gastrin17], for which the values for the 50% effective concentration (EC50) in experiment [2] and in experiment [1] (setting [3]) were 25.7 nM and 86.9 nM, respectively.

Source of the values: patent US10406207B2, “Peptide conjugates of GLP-1 receptor agonists and gastrin and their use” (priority 2010, dated 2019).
